# In patent publication US20230211020A1, “TREATMENT OF INFECTIONS” (ACT Therapeutics Ltd, priority 2020, published 2023):
# Experiments:
# [1] = Tissue specific uptake of Evans Blue in thigh muscle with ACT (Example 2, Study 1); format: in vivo; settings: for EB ratio of the left (treated) to right (untreated) thigh muscle, average±SD: 30 min after treatment; for increase in the uptake upon ACT treatment: US insonated tissue vs. untreated
# Experimental: The tissue specific uptake of Evans Blue (EB, a fluorescent dye) has been investigated in a mouse model. Under physiologic conditions, the endothelium is impermeable to albumin, and Evans blue bound albumin remains confined within blood vessels. Thus, Evans blue is often used as a model compound in drug delivery studies [Bohmer et al., J Controlled Release, 148, Issue 1, 2010, pp. 18-24].
# Female Balb/c nude mice were used. Before treatment, the mice were administered surgical anesthesia by subcutaneous injection of a mix of Fentanyl (0.05 mg/kg), Midazolam (5 mg/kg), and Medetomidine (0.5 mg/kg). An intravenous cannula (BD Neoflon™ 24 GA) was placed in the tail vein. Patency was verified by injection of a slight amount of 0.9% sodium chloride for injection after which a small amount of heparin (10 U/ml) was injection to prevent clotting. The hub of the cannula was filled with 0.9% sodium chloride for injection to eliminate any dead space and closed with a cap. The cannula was secured to the tail with surgical tape.
# Evans Blue solution (50 mg EB/kg) was injected i.v. followed immediately by 2 ml/kg of the cluster dispersion as detailed in Example 1. Two groups where compared (N=3 for each group): 1) EB+cluster dispersion and 2) EB+cluster dispersion+Activation and Enhancement ultrasound insonation.
# The left hind limb of the mouse was placed in a water bath with two US transducers poised for insonation of the left thigh. Ultrasound Activation insonation was provided by a VScan clinical ultrasound scanner (GE Healthcare) with a 2 MHz probe for 45 seconds (MI=0.8) starting from the injection time. This was immediately followed by the Enhancement step comprising 5 minutes 500 kHz ultrasound insonation (MI=0.2) using a single element transducer (Imasonic SAS). Thirty minutes after treatment the animals were sacrificed, tissue samples; thigh muscle from the treated (left) leg and thigh muscle from the contra lateral untreated leg, were harvested and Evans Blue content extracted and quantified. The concentration in the treated thigh muscle was divided by the concentration in the untreated thigh muscle for each animal (matched pair) to provide a dimensionless ratio of the increased uptake in the treated muscle. A one-way ANOVA was applied to the data.
# [2] = tested on: methicillin susceptible strain of Staphylococcus aureus; assay: Neutropenic staphylococcal thigh infection model, Levofloxacin with or without ACT (Example 3); format: in vivo; settings: mice, dose-response study, read-out: ED50 (dose that induces a half maximal decline in bacterial density)
# Excerpt: An established experimental model of staphylococcal thigh infection in a neutropenic thigh infection model was used and neutropenia will be induced with cyclophosphamide. The thigh infection model provides a sensitive experimental system for initial studies of antimicrobial efficacy in a mammalian system. This model is the most standardised for the evaluation of antimicrobial-microbial interactions combined with antimicrobial pharmacokinetics assessed in serum and tissues samples.
# The challenge isolate was methicillin susceptible strain of Staphylococcus aureus is and both thighs were inoculated. Treatment was initiated 2 h after inoculation, thighs was harvested after 26 h and the bacterial density (colony forming units, CFU) in the excised tissue was determined. An initial dose finding study was performed to define the LEV ED50 (the dose that induces a half maximal decline in bacterial density). Within the study, LEV was be dosed intraperitoneal at 20 mg/kg.
# The cluster composition investigated was as detailed in Example 1. […]
# The bacterial density in the thighs harvested from the various groups was determined by growing a diluted sample of the excised tissue, homogenized in sterile PBS, on a plate with growth medium and counting the number of CFU.
# [3] = tested on: T. saginata and Taenia solium (pork tapeworm) infection; settings: in vivo; cited from earlier work
smiles,measurement,setting,value
"Cc1cc(-c2ccc(/N=N/c3ccc4c(S(=O)(=O)O)cc(S(=O)(=O)O)c(N)c4c3O)c(C)c2)ccc1/N=N/c1ccc2c(S(=O)(=O)O)cc(S(=O)(=O)O)c(N)c2c1O [EB, Evans Blue]","EB ratio of the left (treated) to right (untreated) thigh muscle, average±SD",[1]; EB 50 mg/kg i.v. + cluster dispersion 2 ml/kg + Activation and Enhancement US insonation,2.0±0.3
same,"EB ratio of the left (treated) to right (untreated) thigh muscle, average±SD","[1]; EB 50 mg/kg i.v. + cluster dispersion 2 ml/kg, no US insonation",1.1±0.2
same,increase in the uptake upon ACT treatment,[1],about 100%
same,increase in the uptake upon ACT treatment,[1]; listed as Evans Blue,100%
"C[C@H]1COc2c(N3CCN(C)CC3)c(F)cc3c(=O)c(C(=O)O)cn1c23 [LEV, Levofloxacin]",ED50,[2],~24 mg/kg
O=C(Nc1ccc([N+](=O)[O-])cc1Cl)c1cc(Cl)ccc1O [Niclosamide],cure rates,[3],approximately 90%
